# From ChEMBL document CHEMBL4842358, “Design, synthesis and biological evaluation of sphingosine-1-phosphate receptor 2 antagonists as potent 5-FU-resistance reversal agents for the treatment of colorectal cancer” (Eur J Med Chem, 2021)
# Active and inactive are the calls of the source. The rule behind the calls is not given here.
# Tests used:
# [1] = AUC (0 to t) in Sprague-Dawley rat blood at 1 mg/kg, iv measured for 24 hrs by LC-MS/MS analysis; type: ADME, organism-based; set-up: time 24 hrs, dose 1 mg/kg
# [2] = Half life in Sprague-Dawley rat blood at 1 mg/kg, iv measured for 24 hrs by LC-MS/MS analysis; type: ADME, organism-based
# [3] = Initial drug concentration in Sprague-Dawley rat blood at 1 mg/kg, iv by LC-MS/MS analysis; type: ADME, organism-based
# [4] = Initial plasma concentration in Sprague-Dawley rat at 1 mg/kg, iv by LC-MS/MS analysis; type: ADME, organism-based
# [5] = system: Mus musculus; assay: Downregulation of DPD expression in liver of athymic nude mouse xenografted with human SW620/5-FU at 1.08 mg/kg/day, iv administered for 24 days in presence of 5-FU and measured on day 24 by immunohistochemistry; type: functional, organism-based; settings: time 24.0 day
# [6] = system: Mus musculus; assay: Downregulation of DPD expression in tumour of athymic nude mouse xenografted with human SW620/5-FU at 1.08 mg/kg/day, iv administered for 24 days in presence of 5-FU and measured on day 24 by immunohistochemistry; type: functional, organism-based; settings: time 24.0 day
# [7] = Toxicity in athymic nude mouse xenografted with human SW620/5-FU cells assessed as histopathological changes in liver at 1.08 mg/kg/day, iv administered for 24 days in presence of 5-FU and measured on day 24 by immunohistochemistry; type: organism-based; settings: in vivo, 576 h, time 24 day
# [8] = system: Mus musculus; assay: Downregulation of DPD expression in liver of athymic nude mouse xenografted with human SW620/5-FU at 1.08 mg/kg/day, iv administered for 24 days in presence of 5-FU and measured on day 24 by Western blot assay; type: functional, organism-based; settings: time 24.0 day
# [9] = system: Mus musculus; assay: Downregulation of DPD expression in tumour of athymic nude mouse xenografted with human SW620/5-FU at 1.08 mg/kg/day, iv administered for 24 days in presence of 5-FU and measured on day 24 by Western blot assay; type: functional, organism-based; settings: time 24.0 day
# [10] = system: SW620/5-FU; assay: Antitumour activity against human SW620/5-FU cells xenografted in athymic nude mouse assessed as inhibition of tumour growth at 1.08 mg/kg/day, iv administered for 24 days; type: functional; settings: 576 h, time 24 day, read-out: TGI
# [11] = Reversal of 5-FU resistance against human SW620/5-FU cells xenografted in athymic nude mouse assessed as potentiation of 5-FU induced antitumor activity by measuring inhibition of tumor growth at 1.08 mg/kg/day, iv administered for 24 days in presence of 5-FU (reference value: 18.54%); type: functional; settings: 576 h, time 24 day, read-out: TGI
# [12] = Toxicity in athymic nude mouse xenografted with human SW620/5-FU cells assessed as changes in body weight at 1.08 mg/kg/day, iv administered for 24 days in presence of 5-FU and measured for every 4 days; type: organism-based; settings: in vivo, 576 h, time 24 day
# [13] = biological target: T1, Sphingosine 1-phosphate receptor 2 (Homo sapiens, UniProt O95136); assay: Binding affinity to S1PR2 (unknown origin) assessed as association constant measured for 60 secs by surface plasmon resonance assay; settings: filed as antagonist, time 60.0 sec
# T1 sequence (O95136 whole entry): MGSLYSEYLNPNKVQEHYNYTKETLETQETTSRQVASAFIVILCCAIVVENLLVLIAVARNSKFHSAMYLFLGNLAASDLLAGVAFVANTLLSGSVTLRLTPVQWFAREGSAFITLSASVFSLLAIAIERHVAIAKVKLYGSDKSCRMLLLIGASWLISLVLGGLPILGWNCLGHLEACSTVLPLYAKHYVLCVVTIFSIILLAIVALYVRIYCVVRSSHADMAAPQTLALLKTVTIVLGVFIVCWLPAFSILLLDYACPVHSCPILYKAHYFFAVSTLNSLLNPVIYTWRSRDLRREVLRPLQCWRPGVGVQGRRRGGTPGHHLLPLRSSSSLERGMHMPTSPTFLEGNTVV
# [14] = biological target: T1, Sphingosine 1-phosphate receptor 2; assay: Binding affinity to S1PR2 (unknown origin) assessed as dissociation constant measured for 60 secs by surface plasmon resonance assay
# [15] = biological target: T1, Sphingosine 1-phosphate receptor 2; assay: Binding affinity to S1PR2 (unknown origin) measured by surface plasmon resonance assay; settings: filed as antagonist
# [16] = Reversal of 5-FU resistance against human SW620/5-FU cells assessed as inhibition of cell proliferation measured after 72 hrs in presence of 5-FU by MTT assay; type: functional, cell-based
# [17] = system: HCT-116; assay: Reversal of 5-FU resistance against human HCT-116 cells overexpressing DPD assessed as inhibition of cell proliferation measured after 72 hrs in presence of 5-FU by MTT assay; type: functional, cell-based; settings: HCT-116, 72 h
# [18] = system: NCM460; assay: Cytotoxicity against human NCM460 cells assessed as cell viability measured after 72 hrs in presence of 5-FU by MTT assay; type: cell-based; settings: NCM460, 72 h
# [19] = biological target: T1, Sphingosine 1-phosphate receptor 2; assay: Antagonist activity at S1PR2 in human SW620/5-FU cells assessed as downregulation of DPD expression by western blot analysis; type: functional, cell-based; settings: filed as antagonist
# [20] = biological target: T1, Sphingosine 1-phosphate receptor 2; assay: Antagonist activity at S1PR2 in human HCT-116 cells overexpressing DPD assessed as downregulation of DPD expression by western blot analysis; type: functional, cell-based; settings: filed as antagonist, dose 0.16-2.5 µM
# [21] = biological target: T1, Sphingosine 1-phosphate receptor 2; assay: Antagonist activity at S1PR2 in human HCT-116 cells overexpressing DPD assessed as downregulation of JMJD3 expression at 0.16 to 2.5 uM measured by western blot assay; type: functional, cell-based; settings: filed as antagonist, dose 0.16-2.5 µM
# [22] = biological target: T1, Sphingosine 1-phosphate receptor 2; assay: Antagonist activity at S1PR2 in human SW620/5-FU cells assessed as downregulation of JMJD3 expression at 0.16 to 2.5 uM measured by western blot assay; type: functional, cell-based; settings: filed as antagonist, dose 0.16-2.5 µM
# [23] = Downregulation of S1PR2 expression in human HCT-116 cells overexpressing DPD at 0.16 to 2.5 uM cells measured by western blot assay; type: ADME, cell-based; settings: hct-116, 2.5 µM, dose 0.16-2.5 µM
# [24] = Downregulation of human S1PR2 expression in human SW620/5-FU cells at 0.16 to 2.5 uM cells measured by western blot assay; type: ADME, cell-based; settings: dose 0.16-2.5 µM
# [25] = biological target: T1, Sphingosine 1-phosphate receptor 2; assay: Antagonist activity at S1PR2 in human SW620/5-FU cells assessed as reduction of DPD-catalyzed 5-FU degradation by measuring intracellular 5-FU level at 2 uM measured after 6 hrs by HPLC-UV analysis; type: functional, cell-based; settings: filed as antagonist
# [26] = biological target: T1, Sphingosine 1-phosphate receptor 2; assay: Antagonist activity at S1PR2 in human SW620/5-FU cells assessed as reduction of DPD-catalyzed 5-FU degradation by measuring intracellular FBAL level at 2 uM measured after 6 hrs by HPLC-UV analysis; type: functional, cell-based; settings: filed as antagonist
# [27] = biological target: T1, Sphingosine 1-phosphate receptor 2; assay: Antagonist activity at S1PR2 in human SW620/5-FU cells assessed as reduction in dosage of 5-FU at 0.5 to 2.5 uM measured after 6 hrs by HPLC-UV analysis; type: functional, cell-based; settings: filed as antagonist, dose 0.5-2.5 µM
# [28] = Stability in mouse liver microsomes assessed as parent compound remaining at 2 umol/L measured after 60 mins in presence of NADPH regenerating system by LC-MS/MS analysis; type: ADME, Microsome; settings: dose 2 µmol/L, read-out: Stabilty
# [29] = Stability in rat liver microsomes assessed as parent compound remaining at 2 umol/L measured after 60 mins in presence of NADPH regenerating system by LC-MS/MS analysis; type: ADME, Microsome; settings: dose 2 µmol/L, read-out: Stabilty
# [30] = Half life in Sprague-Dawley rat plasma at 1 mg/kg, iv measured for 24 hrs by LC-MS/MS analysis; type: ADME, organism-based
# [31] = AUC (0 to t) in Sprague-Dawley rat plasma at 1 mg/kg, iv measured for 24 hrs by LC-MS/MS analysis; type: ADME, organism-based; set-up: dose 1 mg/kg, time 24 hrs
# [32] = AUC (0 to infinity) in Sprague-Dawley rat blood at 1 mg/kg, iv by LC-MS/MS analysis; type: ADME, organism-based; set-up: route intravenous, time infinity, dose 1 mg/kg
# [33] = AUC (0 to infinity) in Sprague-Dawley rat plasma at 1 mg/kg, iv by LC-MS/MS analysis; type: ADME, organism-based; set-up: time infinity, route intravenous, dose 1 mg/kg
# [34] = Volume of distribution in Sprague-Dawley rat blood at 1 mg/kg, iv measured for 24 hrs by LC-MS/MS analysis; type: ADME, organism-based
# [35] = Volume of distribution in Sprague-Dawley rat plasma at 1 mg/kg, iv measured for 24 hrs by LC-MS/MS analysis; type: ADME, organism-based
# [36] = Clearance in Sprague-Dawley rat blood at 1 mg/kg, iv measured for 24 hrs by LC-MS/MS analysis; type: ADME, organism-based
# [37] = Clearance in Sprague-Dawley rat plasma at 1 mg/kg, iv measured for 24 hrs by LC-MS/MS analysis; type: ADME, organism-based
# [38] = Mean residence time (0 to t) in Sprague-Dawley rat blood at 1 mg/kg, iv measured for 24 hrs by LC-MS/MS analysis; type: ADME, organism-based
# [39] = Mean residence time (0 to t) in Sprague-Dawley rat plasma at 1 mg/kg, iv measured for 24 hrs by LC-MS/MS analysis; type: ADME, organism-based
# [40] = Mean residence time (0 to infinity) in Sprague-Dawley rat blood at 1 mg/kg, iv by LC-MS/MS analysis; type: ADME, organism-based
# [41] = Mean residence time (0 to infinity) in Sprague-Dawley rat plasma at 1 mg/kg, iv by LC-MS/MS analysis; type: ADME, organism-based
# [42] = Ratio of drug level in Sprague-Dawley rat blood to plasma at 1 mg/kg, iv measured for 24 hrs by LC-MS/MS analysis; type: ADME, organism-based; settings: blood and plasma
# [43] = system: Mus musculus; assay: Downregulation of DPD expression in colon of athymic nude mouse xenografted with human SW620/5-FU cells at 1.08 mg/kg/day, iv administered for 24 days in presence of 5-FU and measured on day 24 by immunohistochemistry; type: functional, organism-based; settings: time 24.0 day
smiles,measurement,setting,value
O=C(Nc1cc(Cl)nc(Cl)c1)Nc1cc(Cl)nc(Cl)c1,AUC(0-t) at 24 h,[1],1890 ng·h/mL
same,half-life,[2],4.4 h
same,C0,[3],489 ng/mL
same,C0,[4],1110 ng/mL
same,inhibition,[5],Active
same,inhibition,[6],Active
same,Activity,[7],Non-Toxic
same,inhibition,[8],Active
same,inhibition,[9],Active
same,inhibition in vivo at 1.08 mg/kg/day,[10],7.5%
same,inhibition in vivo at 1.08 mg/kg/day,[11],66.2%
same,Activity,[12],Non-Toxic
same,Ka,[13],5.28 10^6/M/s
same,Dissociation rate constant (koff),[14],6.97 10^-1/s
same,K,[15],1.32 10^-8M
same,EC50,[16],210 nM
same,EC50,[17],180 nM
same,EC50,[18],9440 nM
same,inhibition,[19],Dose-Dependent Effect
same,inhibition,[20],Dose-Dependent Effect
same,inhibition,[21],Active
same,inhibition,[22],Active
same,Activity,[23],Non-Toxic
same,Activity,[24],Non-Toxic
same,Activity,[25],10 mg/L
same,Activity,[26],0.17 mg/L
same,inhibition,[27],Active
same,"remaining at 1 h, 2 µM",[28],97.9%
same,"remaining at 1 h, 2 µM",[29],95.2%
same,half-life,[30],4.7 h
same,AUC(0-t) at 24 h,[31],3840 ng·h/mL
same,AUC(0-inf),[32],1950 ng·h/mL
same,AUC(0-inf),[33],3960 ng·h/mL
same,Vd,[34],3.3 L/kg
same,Vd,[35],1.7 L/kg
same,clearance,[36],8.5 mL/min/kg
same,clearance,[37],4.17 mL/min/kg
same,MRT last at 24 h,[38],6 h
same,MRT last at 24 h,[39],6.2 h
same,MRT inf,[40],6.7 h
same,MRT inf,[41],7 h
same,blood plasma ratio at 24 h,[42],0.484
same,inhibition,[43],Active
